The results in this text go back to patent US12685729B2, “Use of 2,3,5-substituted thiophene compound for enhancement of radiotherapy” (Pharos iBio Co., Ltd., priority 2018, dated 2026).

Assay [1] has as its system JIMT-1 breast cancer cell line. Kind of assay: Clonogenic assay after PHI-101 and radiation, JIMT-1. The class given is cell-based. The conditions noted are these: PHI-101 0.1, 0.2 or 0.5 μM, 0, 1, 2 or 3 Gy 3 hours after treatment, colonies after 10 days. On the procedure: (§1) Whether the PHI-101 compound can act as a radiotherapy sensitizer for breast cancer was evaluated using clonogenic assay.
(§2) Specifically, each of the breast cancer cell lines shown in Table 2 below was added to DMEM medium in a 60-mm dish at a density of 300 cells, and treated with PHI-101 at a concentration of 0.1, 0.2 or 0.5 μM. As a control, DMSO was used.
(§3) 3 hours after PHI-101 treatment, the cells were irradiated with radiation having an intensity of 0, 1, 2 or 3 Gy. Next, the cells were cultured under 5% CO2 at 37° C. for 10 days, and then the formed colonies were stained with 0.4% crystal violet. Then, the colonies were counted and the surviving fraction of the cells was calculated. The results of calculating the surviving fraction were normalized and fitted to a linear-quadratic model using Kaleidagraph version 351 (Synergy Software, Reading, PA).

The subject of the next assay is HCT116 cell line. In words: Tumor volume in mice transplanted with HCT116 colorectal cancer cell line after PHI-101 and radiation. The assay is classed as in vivo. The following applies: HCT116 xenograft mice; PHI-101 20 mg/kg intraperitoneally 24 h and 3 h before and 24 h after 3 Gy X-ray, repeated twice at one-week interval; combination. The procedure: (§4) 6-week-old female Balb/c nu/nu mice (Orient Bio Inc.) and NOD SCID mice (Orient Bio Inc.) were prepared. The mice were acclimated for 1 week after purchase, and then tumor transplants were prepared. During the animal experiment, cages were replaced once a week, and drinking water and feed were often checked to ensure that they were always sufficiently supplied.
(§5) Each of the tumor cell lines shown in Table 1 below was cultured with DMEM (Dulbecco's Modified Eagle Medium) or RPMI-1640 in a 150-mm culture dish (SPL) under 5% CO2 at 37° C. Then, each tumor cell line was diluted to a density of 1×10^6 cells/100 μl using cold DPBS buffer (Welgene), and kept cold on ice until transplantation. […]
(§6) When each tumor cell line transplanted to the mice in Example 1-2 proliferated and the tumor begun to be visible, the lengths of the longest and shortest diameters of the tumor were measured using digital calipers (Mitutoyo). […]
(§7) The tumor volume was measured at intervals of 2 to 4 days, and was calculated using the following equation: V=½(L×W^2) • V=volume (mm^3) • L=length [mm], the longest diameter • W=width [mm], the shortest diameter
(§8) The measurement end time was determined based on when the average volume of the control tumor reached about 2,000 mm^3. The data of the measured tumor volume was first organized in Microsoft Excel, and plotted in GraphPad Prism. […]

Assay [2] concerns MDA-MB-468 breast cancer cell line. Kind of assay: Clonogenic assay after PHI-101 and radiation, MDA-MB-468. The assay is classed as cell-based. The conditions noted are these: PHI-101 0.1, 0.2 or 0.5 μM, 0, 1, 2 or 3 Gy 3 hours after treatment, colonies after 10 days. The procedure:
as §1, §2, §3

Another assay deals with FaDu cell line. In words: Tumor volume in mice transplanted with FaDu head and neck cancer cell line after PHI-101 and radiation. The class given is in vivo. The conditions noted are these: FaDu xenograft mice; PHI-101 20 mg/kg intraperitoneally 3 h before and 24, 48, 72, 96 h after 3 Gy 60Co γ-ray, repeated three times for 3 weeks; combination. On the procedure:
as §4, §5, §6, §7, §8

In another assay the test system is JIMT-1 cell line. In words: Tumor volume in mice transplanted with JIMT-1 breast cancer cell line after PHI-101 and radiation. The class given is in vivo. The conditions noted are these: JIMT-1 xenograft mice; PHI-101 20 mg/kg intraperitoneally 24 h and 3 h before and 24, 48, 72 h after 3 Gy 60Co γ-ray, repeated three times for 3 weeks; combination. The procedure: as §4, §5, §6, §7, §8

Regarding `NC(=O)Nc1cc(C#Cc2cccc(F)c2)sc1C(=O)N[C@H]1CCCNC1` [PHI-101, (S)-5-((3-fluorophenyl)ethynyl)-N-(piperidin-3-yl)-3-ureido-thiophene-2-carboxamide], the “radiation sensitivity of the breast cancer cells (surviving fraction, linear-quadratic model)” value in assay [1] and in assay [2] was “increased in a concentration-dependent manner” in each case. The “tumor volume inhibited compared to when only irradiation was performed” value turned out to be 36.60% in the assay on HCT116 cell line, 29.16% in the assay with FaDu cell line and 20.53% with JIMT-1 cell line. The results for the “tumor volume reduced compared to that in the control group” value with HCT116 cell line, in the assay on FaDu cell line and in the assay on JIMT-1 cell line were 49.58%, 37.50% and 27.32%, respectively.
